Test results published in patent US9643964B2, “3-(2-aminopyrimidin-4-yl)-5-(3-hydroxypropynyl)-1H-pyrrolo[2,3-C]pyridine derivatives as NIK inhibitors for the treatment of cancer” (Janssen Pharmaceutica NV, priority 2013, dated 2017).

Columns and labels:
[1] = molecular target: T1, Recombinant Human NF-kappaB-Inducing Kinase (NIK/MAP3K14) (Homo sapiens, UniProt Q99558); assay: Biological Assay A: inhibition of recombinant human NIK/MAP3K14 activity (MBP phosphorylation, Mesoscale); type: biochemical; conditions: averaged over all measurements on all batches; read-out: Biochemical (MSD MBP) IC50
In short: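 10 nM NIK with 25 μM ATP on MBP-coated plates in Tris pH 7.5 buffer with MgCl2, DTT and Na3VO4 and 1% DMSO, for 1 h at 25° C. Phospho-MBP was detected by anti-phospho-MBP and Sulfotag electrochemiluminescence; after blank subtraction, IC50 came from a sigmoidal fit of % inhibition.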

[2] = molecular target: T1, Recombinant Human NF-kappaB-Inducing Kinase (NIK/MAP3K14); assay: Biological Assay A2: inhibition of auto-phosphorylation of recombinant human NIK/MAP3K14 (AlphaScreen); type: biochemical; conditions: auto-phosphorylation; averaged over all measurements on all batches; read-out: αscreen IC50
In short: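 AlphaScreen readout of anti-phospho-IKK Ser176/180 signal after 1 h, 25° C. incubation of 0.2 nM GST-NIK with compound and 25 microM ATP (Tris pH 7.5 buffer, MgCl2, 1% DMSO final). IC50 from sigmoidal fit of blank-corrected % inhibition against Log10 concentration.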

[3] = system: P-IKKα levels in L363 cells; assay: Biological Assay B: effect of compounds on P-IKKα levels in L363 cells; type: cell-based; conditions: Homo sapiens, L-363, averaged values, read-out: IKKα Cellular IC50
In short: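 L363 cells pre-incubated 24 h with 1 μg/ml stock BAFF, then treated 2 h with compounds (8-point, 1:3 dilutions, 1% DMSO) at 37° C; P-IKKα in lysates measured by sandwich immunoassay. Blank (10 μM ADS125117) subtracted; IC50 from sigmoidal fit of % inhibition of MG132/BAFF control.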

LP-1 cells = assay: Biological Assay C: antiproliferative activity on LP-1 cells (CellTiter-Glo); type: cell-based, human; conditions: Homo sapiens, LP-1, 72 h, 72 hr treatment; averaged values
In short: (§1)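 Luminescent ATP signal (CellTiter-Glo) measures growth of myeloma cells following a 72 h compound treatment. Values for the time-zero blank are subtracted, and each mean of duplicate wells is given as percentage of the no-drug control.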

L-363 cells = assay: Biological Assay C: antiproliferative activity on L-363 cells (CellTiter-Glo); type: cell-based, human; conditions: Homo sapiens, L-363, 72 h, 72 hr treatment; averaged values
In short: as §1

JJN-3 cells = assay: Biological Assay C: antiproliferative activity on JJN-3 cells (CellTiter-Glo); type: cell-based, human; conditions: Homo sapiens, JJN-3, 72 h, 72 hr treatment; averaged values
In short: as §1

T1 sequence (Q99558 whole entry): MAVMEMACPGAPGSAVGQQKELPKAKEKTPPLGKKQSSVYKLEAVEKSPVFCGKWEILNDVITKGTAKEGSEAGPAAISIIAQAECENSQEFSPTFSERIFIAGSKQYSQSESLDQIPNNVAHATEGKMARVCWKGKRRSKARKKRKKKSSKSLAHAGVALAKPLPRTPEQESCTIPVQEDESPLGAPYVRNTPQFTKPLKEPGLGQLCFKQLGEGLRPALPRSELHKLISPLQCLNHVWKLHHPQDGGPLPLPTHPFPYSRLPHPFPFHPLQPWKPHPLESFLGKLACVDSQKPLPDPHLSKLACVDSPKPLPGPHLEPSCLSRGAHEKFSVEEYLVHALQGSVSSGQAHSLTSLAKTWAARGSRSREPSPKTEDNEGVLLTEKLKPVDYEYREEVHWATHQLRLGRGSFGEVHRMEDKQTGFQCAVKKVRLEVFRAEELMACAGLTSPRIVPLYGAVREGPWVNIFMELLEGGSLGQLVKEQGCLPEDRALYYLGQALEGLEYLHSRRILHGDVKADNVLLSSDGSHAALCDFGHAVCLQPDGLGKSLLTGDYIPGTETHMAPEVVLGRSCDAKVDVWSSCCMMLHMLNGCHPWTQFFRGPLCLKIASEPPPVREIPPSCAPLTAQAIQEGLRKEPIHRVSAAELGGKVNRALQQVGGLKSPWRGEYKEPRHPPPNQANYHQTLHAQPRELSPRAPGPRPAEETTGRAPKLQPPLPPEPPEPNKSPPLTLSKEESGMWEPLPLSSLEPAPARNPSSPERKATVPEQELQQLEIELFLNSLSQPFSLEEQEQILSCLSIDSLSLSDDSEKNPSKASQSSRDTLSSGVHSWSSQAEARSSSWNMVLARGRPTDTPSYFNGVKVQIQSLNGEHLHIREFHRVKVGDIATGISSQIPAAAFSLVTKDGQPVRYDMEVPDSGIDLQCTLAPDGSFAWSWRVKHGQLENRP

| SMILES | IC50 [1] [nM] | IC50 [2] [nM] | IC50 [3] [nM] | EC50 (LP-1 cells) [nM] | EC50 (L-363 cells) [nM] | EC50 (JJN-3 cells) [nM] |
| --- | --- | --- | --- | --- | --- | --- |
| CC(C)(O)C#Cc1cc2c(-c3ccnc(N)n3)cn(C3CNC3)c2cn1 [Compound 113] | 52 | 38 | 660 | 24000 | 4600 | 1400 |
| CC(C)(O)C#Cc1cc2c(-c3ccnc(N)n3)cn(CC3CCNCC3)c2cn1 [Compound 114] | 160 | 190 | 3800 | 5500 | 1500 | 1600 |
| CC(C)(O)C#Cc1cc2c(-c3ccnc(N)n3)cn(CCN3CC(=O)NC3=O)c2cn1 [Compound 116] | 120 | 170 | 5300 | > 10000 | 11000 | 5600 |
| CC(C)(O)C#Cc1cc2c(-c3ccnc(N)n3)cn(CCCN3CC(=O)NC3=O)c2cn1 [Compound 117] | 100 | 14 | 3400 | > 10000 | 9000 | 3300 |
| CC(C)n1cc(-c2nc(N)ncc2CCCN)c2cc(C#CC(C)(C)O)ncc21 [Compound 118] | 240 | 740 | 1700 | 3800 | 1600 | 330 |
